Source: article PMC3006138, “Fexinidazole – A New Oral Nitroimidazole Drug Candidate Entering Clinical Development for the Treatment of Sleeping Sickness” (PLoS Neglected Tropical Diseases, 2010)
Several values for one entry are separate records, joined by “and”; a condition that tells them apart may be missing. Equal entries are not always repeated.

Key:
Caco-2 cell monolayers = assay: in vitro; conditions: Caco-2
Protocol: (§1) Caco-2 [36] or MDR1-MDCK (Madin Darby canine kidney cells transfected with the human multidrug resistance MDR1 gene) cell monolayers were grown to confluence on collagen-coated, microporous, polycarbonate membranes in 12-well microtitre plates. The buffer for the donor chamber was Hanks balanced salt solution with 10 mM HEPES and 15 mM glucose at pH 7.4. The buffer in the receiver chamber contained the same with the addition of 1% bovine serum albumin (BSA). The test article was added at 5 µM in the assay buffer. […] After 2 h, duplicate aliquots were taken from the donor and receiver chambers and assayed via LC/MS. The apparent permeability and recovery were calculated using standard methods.
(§2) The objective of this study was to determine the bi-directional Caco-2 permeability and efflux limited absorption poten tial of thr ee test compoun ds. […]
(§3) 4 . […] Th e test compound dosing concentrations were 5 µM in th e a ssay bu f fer . […] After two hours, a l iquot s wer e t a ken fr om th e r ecei ver an d don or cha m ber s. E a ch det erm ina ti on wa s per for m ed in dupl i cat e. Th e Lucifer Yellow flux was also measur ed for each mon olayer after bein g subjected to th e test compoun ds to en sur e n o damage was in flicted to th e cell mon olayer s durin g th e flux per iod. All samples wer e assayed by LC/MS/MS usin g electrospray ionization. Analytical conditions are outlined in Attachment I. The apparent permeability, Papp, and per cen t r ecover y wer e calculated as follows:
(§4) Papp = (dCr /dt) x Vr/(AxC) (1)
(§5) P er cen t Rec o ver y = 1 0 0 x ( ( V r x C rfi n a l ) + (Vd x Cd fi n a l ))/(Vd x C N) (2) […]
(§6) dCr /dt is th e slope of th e cumulative con cen tration in th e r eceiver compartment ver sus time in µM s -1. […]

[1] = system: MDR1-MDCK cell monolayers; assay: MDR1-MDCK permeability; conditions: plate certification
Protocol: as §1
(§7) The objective of this study was to determine the bi-directional MDR1-MDCK permeability and efflux limited absor ption potential of thr ee test compounds. […]
(§8) 4. Th e buff er in th e r ecei ver cha m ber a l so con t a in ed 1% Bovi n e Ser um Al bumin ( BSA) . Th e test compound dosing concentrations were 5 µM in th e a ssay bu f fer . […] After two hours, a l iquot s wer e t a ken fr om th e r ecei ver an d don or cha m ber s. E a ch det erm ina ti on wa s per for m ed in dupl i cat e. Th e Lucifer Yellow flux was also measur ed for each mon olayer after bein g subjected to th e test compoun ds to en sur e n o damage was in flicted to th e cell mon olayer s durin g th e flux per iod. All samples wer e assayed by LC/MS/MS usin g electrospray ionization. Analytical conditions are outlined in Attachment I. The apparent permeability, Papp, and per cen t r ecover y wer e calculated as follows: […]
as §6

T. b. brucei GVR35 [2] = assay: Chronic (stage 2) infection mouse model; type: in vivo; conditions: 40 mg/kg×1 ip, day 21
Caco-2 permeability = conditions: human, Caco-2
Protocol: as §1, §2, §3, §4, §5, §6

[3] = system: MDR1 (human, transfected); assay: MDR1-MDCK permeability; conditions: dog, MDCK-MDR1
Protocol: as §1, §7, §8, §6

human MDR1 = assay: MDR1-MDCK permeability; conditions: dog, MDCK-MDR1
Protocol: as §1, §7, §8, §6

Salmonella typhimurium = system: Salmonella typhimurium; set-up: method as in ref 58 (Suter et al.); conditions: standard strains, ref 58 (Suter et al.); cited from earlier work
colon or liver = conditions: mouse, in vivo; cited from earlier work
jejunum or liver = conditions: rat, in vivo; cited from earlier work
rat liver DNA = conditions: in vivo; cited from earlier work
[4] = system: T. b. rhodesiense (STIB 900); assay: In vitro trypanocidal assay (Alamar Blue); type: cell-based, Trypanosoma brucei rhodesiense; conditions: Trypanosoma brucei, 72 h
Protocol: (§9) 10 µL of Alamar Blue was added for the final 3 h to determine viability. […] The IC50 values were calculated from the sigmoidal inhibition curves. For cytotoxicity, 4×10^4/mL L-6 rat skeletal myoblast cells were used, and incubations and assessments carried out as above.

[5] = system: T. b. gambiense (STIB 930); assay: In vitro trypanocidal assay (Alamar Blue); type: cell-based, Trypanosoma brucei gambiense; conditions: Trypanosoma brucei, 72 h
Protocol: Parasites were cultured with or without the test article at a concentration of 3×10^4/mL in Minimal Essential Medium, according to Baltz et al., with the following modifications: 0.2 mM 2-mercaptoethanol, 1 mM Na-pyruvate, 0.5 mM hypoxanthine and 15% heat inactivated horse serum at 37°C in 5% CO2 in 96-well microtitre plates for 72 h. 10 µL of Alamar Blue was added for the final 3 h to determine viability. The assay was assessed by reading the fluorescence in each well at an excitation wavelength of 536 nm and at an emission wavelength of 588 nm. The IC50 values were calculated from the sigmoidal inhibition curves. For cytotoxicity, 4×10^4/mL L-6 rat skeletal myoblast cells were used, and incubations and assessments carried out as above.

L-6 rat myoblast cells = assay: Cytotoxicity assay; type: cell-based; conditions: 72 h
Protocol: as §9

T. b. gambiense 130R = assay: Acute infection mouse model; type: in vivo; conditions: 4 mg/kg×4 days ip
Protocol: (§10) Female NMRI mice were infected via intraperitoneal injection with bloodstream forms of T. b. rhodesiense STIB900 or T. b. gambiense 130R and treated with test drugs daily for 4 consecutive days, starting on day 3 or 7 after infection, respectively, or with bloodstream forms of T. b brucei GVR35 and treated daily from day 21 after infection for 5 days. Parasitemia was evaluated by tail blood examination and surviving, aparasitaemic mice at 60, 90, or 180 days, respectively, were considered cured.

T. b. brucei GVR35 [6] = assay: Chronic (stage 2) infection mouse model; type: in vivo
Protocol: as §10

[7] = stage 2 HAT patients; cited from earlier work
[8] = 15 mg/kg×5 days ip, separate experiment

Molecule: Lucifer Yellow [reference compound]
- Papp (Caco-2 cell monolayers): 0.23 10-6 cm/s
- Papp [1]: 0.12 10-6 cm/s

Molecule: N=C(N)c1ccc(/N=N/Nc2ccc(C(=N)N)cc2)cc1 [Diminazene, Diminazine diaceturate]
- Cured/infected (T. b. brucei GVR35 [2]): 0/4
- Mean relapse time (T. b. brucei GVR35 [2]): 48.6 days

Molecule: C[C@H]1O[C@@H](O[C@H]2[C@@H](O)C[C@H](O[C@H]3[C@@H](O)C[C@H](O[C@H]4CC[C@@]5(C)[C@H](CC[C@@H]6[C@@H]5C[C@@H](O)[C@]5(C)[C@@H](C7=CC(=O)OC7)CC[C@]65O)C4)O[C@@H]3C)O[C@@H]2C)C[C@H](O)[C@@H]1O [Digoxin, reference compound]
- Papp A→B (Caco-2 permeability): 0.53 ×10⁻⁶ cm/s
- Papp B→A (Caco-2 permeability): 10.4 ×10⁻⁶ cm/s
- efflux ratio (Caco-2 permeability): 19.6
- efflux ratio [3]: 68.8
- Papp A→B (human MDR1): 0.13 ×10⁻⁶ cm/s
- Papp B→A (human MDR1): 8.83 ×10⁻⁶ cm/s

Molecule: O=c1[nH]c2cc([N+](=O)[O-])cc(CNCP(=O)(O)O)c2[nH]c1=O [AMP397]
- bacterial mutagenicity (Salmonella typhimurium): positive Ames test results
- mutagenicity in colon or liver (colon or liver): No evidence of mutagenicity
- genetic damage in jejunum or liver (jejunum or liver): did not detect any genetic damage
- DNA binding in rat liver (rat liver DNA): failed to show any DNA binding

Molecule: Nc1nc(N)nc(Nc2ccc([As]3SCC(CO)S3)cc2)n1 (stereo not shown) [Melarsoprol, reference compound]
- IC50 [4]: 4 to 9 nM
- IC50 [5]: 0.0015 µg/mL to 0.003 µg/mL and 4 nM to 6 nM
- IC50 (L-6 rat myoblast cells): 1.3 µg/mL and 3.3 µM
- Cured/infected (T. b. gambiense 130R): 4/4
- Mean relapse time (T. b. gambiense 130R): >90 days
- Cured/infected (T. b. brucei GVR35 [6]; 10 mg/kg×5 days ip): 2/8
- Mean relapse time (T. b. brucei GVR35 [6]; 10 mg/kg×5 days ip): >96.6 days
- Cured/infected (T. b. brucei GVR35 [6]; [8]): 4/5
- Mean relapse time (T. b. brucei GVR35 [6]; [8]): >180 days
- cure (T. b. brucei GVR35 [6]; five daily ip injections of 15 mg/kg): 100%
- treatment-related mortality [7]: ~5%
